Test results published in PubChem BioAssay (NCI).
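48-hour exposure; five concentrations; linearly interpolated endpoints. Abbreviation: GI50, concentration required for 50% inhibition of growth. At the TGI there is no net growth.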

How the values were obtained:
Test in all cases: growth of human tumour cells (NCI), 48 h
[1] = tested on: 786-0 renal
[2] = tested on: M14 melanoma
[3] = tested on: T-47D breast
[4] = tested on: MDA-N
[5] = tested on: SF-295 CNS
[6] = tested on: ACHN renal
[7] = tested on: U251 CNS
[8] = tested on: OVCAR-5 ovarian
[9] = tested on: TK-10 renal

| SMILES | TGI [1] [µM] | TGI [2] [µM] | TGI [3] [µM] | TGI [4] [µM] | TGI [5] [µM] | TGI [6] [µM] | TGI [7] [µM] | TGI [8] [µM] | TGI [9] [µM] | GI50 [3] [µM] | GI50 [5] [µM] | GI50 [6] [µM] | GI50 [8] [µM] | GI50 [2] [µM] | GI50 [9] [µM] | GI50 [7] [µM] |
| --- | --- | --- | --- | --- | --- | --- | --- | --- | --- | --- | --- | --- | --- | --- | --- | --- |
| CC(=O)OCC(OC(C)=O)C(OC(C)=O)C(OC(C)=O)C(/C=N\Nc1nc2ccccc2c(=O)[nH]1)=N/Nc1nc2ccccc2c(=O)[nH]1 (configuration not stated) | > 100 | > 100 | > 100 | > 100 | > 100 | > 100 | > 100 | > 100 | – | – | – | – | – | – | – | – |
| CCOC(=O)NC(=S)c1ccc(O)c2ccccc12 | > 100 | > 100 | > 100 | > 100 | > 100 | > 100 | > 100 | > 100 | – | – | – | – | – | – | – | – |
| OC(c1ccccc1)C(F)(F)c1nc2ccccc2o1 (configuration not stated) | > 100 | > 100 | > 100 | – | > 100 | > 100 | > 100 | – | > 100 | – | – | – | – | – | – | – |
| O=C1CN(c2ccc(Cl)cc2)C(=O)CN1NCNN1CC(=O)N(c2ccc(Cl)cc2)CC1=O | > 100 | > 100 | – | > 100 | > 100 | > 100 | > 100 | > 100 | > 100 | – | – | – | – | – | – | – |
| O=C(Nc1nc(C23CC4CC(CC(C4)C2)C3)cs1)c1cc2c(ccc3ccccc32)oc1=O | > 100 | – | – | > 100 | > 100 | > 100 | > 100 | > 100 | > 100 | – | – | – | – | – | – | – |
| CCCOC1OC(CS(=O)(=O)O)C(O)C(O)C1O (configuration not stated) | – | > 100 | > 100 | > 100 | > 100 | – | > 100 | > 100 | > 100 | – | – | – | – | – | – | – |
| Cc1ccc(C2CC(c3cccc(Nc4ccncc4)c3)=NN2c2ccccc2)cc1 (configuration not stated) | – | – | 4.85 | – | 3.17 | 3.05 | – | 3.19 | – | 2.02 | 1.76 | 1.69 | 1.68 | – | – | – |
| CN(C)CCCNC(=O)c1cc(NC(=O)c2cc(NC(=O)[C@@H]3C[C@H]3C(=O)Nc3cc(C(=O)Nc4cc(C(=O)NCCCN(C)C)n(C)c4)n(C)c3)cn2C)cn1C | > 100 | > 100 | – | – | > 100 | > 100 | > 100 | > 100 | – | – | – | – | – | – | – | – |
| CC(=O)Oc1c2oc3cc(O)c(O)cc3c2c(OC(C)=O)c2oc3cc(O)c(O)cc3c12 | > 100 | > 100 | – | > 100 | 30.3 | 74.8 | 3.44 | 56.3 | 32.9 | – | – | – | – | – | – | – |
| COC1(CC[C@H](C)COC2OC(CO)C(O)C(O)C2O)O[C@H]2C[C@H]3[C@@H]4CC=C5C[C@@H](OC6OC(CO)C(O)C(OC7OC(CO)C(O)C(O)C7O)C6OC6OC(C)C(O)C(O)C6O)CC[C@]5(C)[C@H]4CC[C@]3(C)[C@H]2[C@@H]1C (some centres not stated) | 5.29 | – | 9.68 | 27 | 10.1 | 36.3 | 4.02 | > 32.5 | > 69.7 | – | – | – | – | – | – | – |
| O=C1NC(S(=O)(=O)O)=NNC12c1ccccc1-c1ccccc12 | > 10 | > 10 | > 10 | > 10 | > 10 | > 10 | – | – | > 10 | – | – | – | – | – | – | – |
| C[N+](C)([O-])Cc1cc(-c2ccccc2)ccc1O | > 100 | > 100 | > 100 | – | > 100 | > 100 | > 100 | > 100 | > 100 | – | – | – | – | – | – | – |
| COc1ccc(-c2nc(-c3cnccn3)n(COCCO)n2)cc1 | > 100 | > 100 | > 100 | > 100 | > 100 | – | > 100 | > 100 | > 100 | – | – | – | – | – | – | – |
| O=[N+]([O-])c1sc2ccc(Cl)cc2c1Nc1ccc(Cl)cc1 | > 100 | > 100 | > 100 | – | > 100 | > 100 | > 100 | > 100 | > 100 | – | – | – | – | – | – | – |
| COc1cc(C23OCC(Cc4cc5c(cc42)OCO5)C3CO)cc(OC)c1OC (configuration not stated) | > 100 | > 100 | > 100 | – | > 22.5 | > 100 | 43.8 | > 100 | > 100 | – | – | – | – | – | – | – |
| CC1=CC(C)(C)Nc2ccc(CSc3ccccc3)cc21 | 72.1 | 65.2 | – | 69.9 | 48.2 | > 100 | > 100 | 40.4 | > 100 | – | – | – | – | – | – | – |
| C=C1CC(COc2ccc3c(C)cc(=O)oc3c2)(c2ccccc2)OC1=O (configuration not stated) | 2.79 | 2.66 | – | 5.78 | 23 | 7.3 | 23.6 | 24.5 | 3.42 | – | – | – | – | – | – | – |
| O=C(O)Cn1c2c(c3c(O)cccc31)C(=O)c1ccccc1-2 | – | > 100 | > 100 | – | > 100 | > 100 | > 100 | > 100 | > 100 | > 100 | > 100 | > 100 | > 100 | > 100 | > 100 | > 100 |
| CC(=O)N=C1N(/C=C2\C(=O)Oc3ccccc3C2=O)C(=O)/C(=C/c2ccccc2Cl)N1C | > 100 | > 100 | > 100 | > 100 | > 100 | > 100 | > 100 | > 100 | – | – | – | – | – | – | – | – |
